From US11208416B2, “Selective inhibitors of protein arginine methytransterase 5 (PRMT5)” (Prelude Therapeutics, Incorporated, priority 2017, dated 2021) come the findings set out here.

Assay [1] addresses PRMT5/MEP50 complex (Homo sapiens (Human), UniProt O14744). Description: Biochemical assay, PRMT5/MEP50 methylation of histone H2A with 3H-SAM. The conditions noted are these: histone H2A 5 μM, PRMT5/MEP50 5 nM. The procedure:
Biochemical Assay Protocol
Compounds were solubilized and 3-fold diluted in 100% DMSO. […] Standard reactions were performed in a total volume of […] assay buffer, with histone H2A (5 μM final) as substrate. To this was added the PRMT5/MEP50 complex diluted to provide a final assay concentration of 5 nM and the compounds were allowed to preincubate for 15 to 20 minutes at room temperature. The reaction was initiated by adding S-[3H-methyl]-adenosyl-L-methionine (PerkinElmer) to final concentration of […]. Following a 60 minutes incubation at 30° C., the reaction was stopped by adding 100 μL of 20% TCA. Each reaction was spotted onto filter plate (MultiScreen FB Filter Plate, Millipore), and washed 5 times with PBS buffer, Scintillation fluid was added to the filter plate and read in a scintillation counter. IC50 values were determined by fitting the data to the standard 4 parameters with Hill Slope using GraphPad Prism software.

The subject of assay [2] is Granta-519 cells. Description: Cell proliferation assay on Granta-519 cells (CCK-8). Type of assay: cell-based. The conditions noted are these: Homo sapiens, 240 h; Granta-519 cell line, day 10; read-out: Prolif. IC50. The procedure:
Cell Proliferation Assay to Determine IC50 on Granta-519 Cells
Granta-519 cells were maintained in PRMI 1640 (Corning Cellgro, Catalog #: 10-040-CV) medium supplemented with 10% v/v FBS (GE Healthcare, Catalog #: SH30910.03). Compounds were dissolved in DMSO to make 10 mM stocks and stored at −20° C. Nine-point, 3-fold serial dilutions were made with DMSO with top concentration at 1 mM (working stocks).
On day of experiment, compound working stocks were further diluted at 1:50 with fresh medium in 96 well plate, and 10 μL of diluted drugs were added to a new 96 well plate for proliferation assay. Cells growing at exponential phase were spun down at 1500 rpm for 4 min and resuspend in fresh medium to reach a density of 0.5×10^6 cells/ml. 200 ul of cells were added to 96 well plate containing diluted drugs and incubated for 3 days. DMSO was used a vehicle control.
One day 3, 10 μL of Cell Counting Kit-8 (CCK-8, Jojindo, CK04-13) solution was added to a new 96 well plate. […] Plates were incubated in CO2 incubator for 2 hours and OD450 values were measured with a microplate reader (iMark microplate reader, Bio-Rad). […]
Percentage of viable cells, relative to DMSO vehicle control, were calculated and plotted in Graphpad Prism ([Inhibitor] vs. normalized response−Variable slope) to determine proliferation IC50 values on day 10.

Assay [3] concerns Symmetric Di-Methyl Arginine (sDMA). The assay can be described thus: Western blot for sDMA marks in Granta cells (enzyme inhibition IC50). The conditions noted are these: Homo sapiens, 72 h; Granta-519 cell line, 3 days. It is filed as cell-based. (A western blot detects proteins with antibodies after separation by electrophoresis.)
Assay [4] concerns sDMA. The assay can be described thus: sDMA levels in tumor samples of Granta-519 mouse xenograft (Western blot). It is filed as in vivo. The conditions noted are these: 50 mg/kg orally QD. How it is done:
Granta-519 cells was maintained in DMEM medium supplemented with 10% fetal bovine serum and 2 mM L-Glutamine at 37° C. in an atmosphere of 5% CO2 in air. Cells in exponential growth phase were harvested and 1×10^7 cells in 0.1 mL of PBS with Matrigel (1:1) were injected subcutaneously at the right lower flank region of each mouse for tumor development. The treatments were started when the mean tumor size reaches approximately 300-400 mm^3. […] Example 47 or vehicle (0.5% Na CMC+0.5% Tween80, suspension) were administered orally (QD for Example 47, QD for vehicle) at a dose of 30 mg/kg and 50 mg/kg for 19 and 16 days, respectively. Body weights and tumor size were measured every 3 to 4 days after randomization. Animals were euthanized 12 hours after last dosing, and blood and tumor samples were collected for analysis.
To measure sDMA levels in tumor samples, tumors from each mouse were weighted and homogenized in RIPA buffer supplemented with protease inhibitor (cOmplete™ EDTA-free Protease Inhibitor Cocktail, Roche). Lysate were centrifuged at 14,000 rpm for 30 min at 4° C. to remove debris. Total protein concentrations of lysate were determined by BCA assay (ThermoFisher Scientific, Catalog #: 23225). Equal amount of total proteins from each tumor were separated on SDS-PAGE gel, and sDMA levels were determined by WB as described previously.

Sequence of PRMT5/MEP50 complex (O14744 whole entry): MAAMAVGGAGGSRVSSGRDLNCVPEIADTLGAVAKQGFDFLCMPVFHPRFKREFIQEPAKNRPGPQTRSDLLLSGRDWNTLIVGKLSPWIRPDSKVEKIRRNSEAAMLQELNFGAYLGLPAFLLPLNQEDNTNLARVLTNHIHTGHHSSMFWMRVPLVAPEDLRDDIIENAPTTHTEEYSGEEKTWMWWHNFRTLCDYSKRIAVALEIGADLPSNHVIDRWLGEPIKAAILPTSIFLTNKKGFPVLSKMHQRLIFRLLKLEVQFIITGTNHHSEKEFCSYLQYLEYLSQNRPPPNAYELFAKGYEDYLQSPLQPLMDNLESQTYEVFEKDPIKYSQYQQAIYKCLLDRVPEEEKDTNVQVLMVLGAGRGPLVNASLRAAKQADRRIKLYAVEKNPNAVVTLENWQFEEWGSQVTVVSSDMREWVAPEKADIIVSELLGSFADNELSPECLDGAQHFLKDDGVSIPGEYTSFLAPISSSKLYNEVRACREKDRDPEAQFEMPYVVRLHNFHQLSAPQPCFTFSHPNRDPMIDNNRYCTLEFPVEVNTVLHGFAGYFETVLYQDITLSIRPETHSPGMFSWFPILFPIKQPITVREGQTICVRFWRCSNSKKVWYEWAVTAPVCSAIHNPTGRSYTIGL
Sequence of PRMT5/MEP50 complex (Q9BQA1 whole entry partner): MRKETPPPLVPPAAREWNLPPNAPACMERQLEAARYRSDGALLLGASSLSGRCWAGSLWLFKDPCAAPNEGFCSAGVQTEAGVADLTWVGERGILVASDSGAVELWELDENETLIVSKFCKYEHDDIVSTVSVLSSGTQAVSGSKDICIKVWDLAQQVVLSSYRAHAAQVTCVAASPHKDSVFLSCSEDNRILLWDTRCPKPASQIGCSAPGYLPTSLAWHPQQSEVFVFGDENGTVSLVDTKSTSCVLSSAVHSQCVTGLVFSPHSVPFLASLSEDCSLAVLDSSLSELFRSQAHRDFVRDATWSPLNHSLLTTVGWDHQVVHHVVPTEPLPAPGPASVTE

Consider `CSC[C@H]1O[C@@H](n2ccc3c(N)ncnc32)[C@H](O)[C@]1(C)O` [Example 17, (2S,3S,4R,5R)-5-(4-amino-7H-pyrrolo[2,3-d]pyrimidin-7-yl)-3-methyl-2-((methylthio)methyl)tetrahydrofuran-3,4-diol], for which the figures for the IC50 in assay [1], in assay [2] and in assay [3] were 0.9 µM, 200 µM and 1 µM, respectively.

Consider `C[C@@]1(O)[C@@H]([C@H](O)c2ccc(Cl)c(Cl)c2)O[C@@H](n2ccc3c(N)ncnc32)[C@@H]1O` [Example 47, (2R,3S,4R,5R)-5-(4-amino-7H-pyrrolo[2,3-d]pyrimidin-7-yl)-2-((R)-(3,4-dichlorophenyl)(hydroxy)methyl)-3-methyltetrahydrofuran-3,4-diol], for which the “sDMA level in tumor” value in assay [4] is “no detectable sDMA”.

As for `Cc1ncnc2c1ccn2[C@@H]1O[C@H](Cc2ccc(Cl)cc2CO)[C@@](C)(O)[C@H]1O` [Example 64, (2R,3S,4R,5R)-2-[[4-chloro-2-(hydroxymethyl)phenyl]methyl]-3-methyl-5-(4-methylpyrrolo[2,3-d]pyrimidin-7-yl)tetrahydrofuran-3,4-diol], it took 1.61 µM to reach half-maximal inhibition in assay [1] (IC50).

In general, IC50 refers to the concentration at which inhibition is half-maximal.
